# In EPA's ToxValDB 9.5:
# Tests used:
# Rattus norvegicus [1] = conditions: M/F
# Rattus norvegicus [2] = conditions: oral
# Rattus norvegicus [3] = conditions: oral; remark: listed apart in the source
# Rattus norvegicus [4] = system: Rattus norvegicus
# Canidae = conditions: for NOAEL / LOAEL: oral
# Rattus norvegicus [5] = conditions: oral, gavage, M/F, Crl:CD(SD), During lactation periods f1 & f2: increased pup mortality, decreased pup viability & bodyweight, decreased lactation index, increased …
# Mus musculus [6] = conditions: for LD50: acute
# Oryctolagus sp. = conditions: for LD50: acute, dermal
# Rattus norvegicus [7] = conditions: developmental, oral, M
# Rattus norvegicus [8] = conditions: chronic; duration: 26 weeks; oral; diet; Liver: Altered weight
# Rattus norvegicus [9] = conditions: subchronic; duration: 42 days; oral; gavage; CD(SD)
# Mus musculus [10] = conditions: developmental; duration: 9 days; inhalation; M/F; CF1; developmental
# Mus musculus [11] = conditions: developmental; inhalation; M/F; delayed fetal ossification
# [12] = subchronic, M/F, liver and kidney pathology
# [13] = reproduction developmental, duration: 10 days, oral, diet, F, Sprague-Dawley
# [14] = subchronic, duration: 90 days, diet, Beagle
# [15] = chronic, M/F, body weight depression
# [16] = developmental, M/F, increased retinal folds in weanlings, reduced viability and lactation indices, reduced pup body weight, increased dead pups at birth
# [17] = subchronic, duration: 90 days, oral, diet, Sprague-Dawley
# [18] = chronic, duration: 6 months, diet, M, increased liver-to-body weight and liver-to-brain weight ratios
# [19] = reproduction developmental, duration: 15 days, oral, diet, Sprague-Dawley
# [20] = subchronic, duration: 90 days, oral, diet
compound,measurement,setting,value
"Oc1cc(Cl)c(Cl)cc1Cl [2,4,5-Trichlorophenol]",NOAEL,"Rattus norvegicus [1]; chronic, duration: 98 days, oral, diet, Wistar, hepatic, renal",100 mg/kg-day
same,NOAEL,"Rattus norvegicus [2]; chronic, duration: 98 days, diet, M/F, Wistar, Hepatic, Urinary",100 mg/kg-day
same,LOAEL,Rattus norvegicus [3]; [12],300 mg/kg-day
same,NOEL,Rattus norvegicus [3]; [12],100 mg/kg-day
OCCCl [2-Chloroethanol],NOAEL,"Rattus norvegicus [2]; chronic, duration: 18 weeks, diet, M/F, FDRL, Whole Body Effects",45 mg/kg-day
[Lu] [Lutetium],NOAEL,"Rattus norvegicus [2]; subchronic, duration: 90 days, diet, M/F, CRW",504 mg/kg-day
COC(=O)c1ccccc1C(=O)OC [Dimethyl phthalate],LD50,"Rattus norvegicus [4]; acute, oral",6900 mg/kg
same,NOAEL,"Rattus norvegicus [4]; developmental, duration: 10 days, oral, diet, Sprague-Dawley",> 3570 mg/kg-day
same,NOAEL,Rattus norvegicus [4]; [13],840 mg/kg-day
same,LOAEL,"Rattus norvegicus [2]; short-term, duration: 1 weeks, diet, M, Wistar",302 mg/kg-day
CC(C)(C)c1cc(Cn2c(=O)n(Cc3cc(C(C)(C)C)c(O)c(C(C)(C)C)c3)c(=O)n(Cc3cc(C(C)(C)C)c(O)c(C(C)(C)C)c3)c2=O)cc(C(C)(C)C)c1O,LD50,"Rattus norvegicus [4]; acute, dermal",> 2000 mg/kg
same,LD50,"Rattus norvegicus [4]; acute, dermal, Albino rats / Tif: RAI f (SPF)",> 2000 mg/kg
same,LD50,"Rattus norvegicus [4]; acute, oral, gavage, Tif : Raif (SPF), F3 - hybrid of RII 1/ Tif x RII 2/ Tif",> 5000 mg/kg
same,NOAEL,"Rattus norvegicus [4]; chronic, duration: 92 days, oral, diet, F, Tif: RAIf (SPF), hybrids of RII/1 x RII/2",62.4 mg/kg-day
same,NOAEL,"Rattus norvegicus [4]; chronic, duration: 92 days, oral, diet, M, Tif: RAIf (SPF), hybrids of RII/1 x RII/2",234 mg/kg-day
same,NOAEC,"Rattus norvegicus [4]; subchronic, duration: 90 days, oral, diet, Albino Rats / Charles River strain",960 mg/kg-day
same,NOAEL,Canidae; [14],370 mg/kg-day
same,NOAEL,"Canidae; subchronic, duration: 90 days, diet, F, Beagle",370 mg/kg-day
same,NOAEL,"Canidae; subchronic, duration: 90 days, diet, M, Beagle",370 mg/kg-day
"O=C(c1ccc(Cl)cc1)c1ccc(Cl)cc1 [4,4'-Dichlorobenzophenone]",NOAEL,"Rattus norvegicus [2]; subchronic, duration: 90 days, diet, M, Wistar",86 mg/kg-day
ClCCOCOCCCl [Bis(2-chloroethoxy)methane],NOAEL,"Rattus norvegicus [2]; subchronic, duration: 90 days, gavage, M/F, Sprague-Dawley, hepatic",10 mg/kg-day
Cc1ccccc1N [2-Methylaniline],LOAEL,"Rattus norvegicus [2]; subchronic, duration: 13 weeks, diet, M, Fischer 344",301 mg/kg-day
O=C1[O][Sb-]23[O]C(=O)C([O]2)C2[O][Sb-]4([O]C(=O)C([O]4)C1[O]3)[O]C2=O.[K+].[K+],LOAEL,"Rattus norvegicus [2]; chronic, duration: 2 years, drinking water, M/F, Long-Evans, Whole Body Effects",0.35 mg/kg-day
O=C1CCCCC1 [Cyclohexanone],NOAEL,"Rattus norvegicus [2]; chronic, duration: 25 weeks, drinking water, M, Fischer 344, Whole Body Effects",731 mg/kg-day
same,LOAEL,Rattus norvegicus [3]; [15],910 mg/kg-day
same,NOAEL,Rattus norvegicus [3]; [15],462 mg/kg-day
CC[C@H](C)[C@H]1O[C@]2(C=C[C@@H]1C)C[C@@H]1C[C@@H](C/C=C(\C)[C@@H](O[C@H]3C[C@H](OC)[C@@H](O[C@H]4C[C@H](OC)[C@@H](O)[C@H](C)O4)[C@H](C)O3)[C@@H](C)/C=C/C=C3\CO[C@@H]4[C@H](O)C(C)=C[C@@H](C(=O)O1)[C@]34O)O2 [Avermectin B1a],LOAEL,Rattus norvegicus [5]; developmental,0.4 mg/kg-day
same,NOAEL,Rattus norvegicus [5]; developmental,0.12 mg/kg-day
same,LOAEL,Rattus norvegicus [5]; two-generation,0.4 mg/kg-day
same,NOAEL,Rattus norvegicus [5]; two-generation,0.12 mg/kg-day
same,LEL,Rattus norvegicus [3]; [16],0.4 mg/kg-day
same,NOEL,Rattus norvegicus [3]; [16],0.12 mg/kg-day
CCCCOC(=O)c1ccccc1C(=O)OCc1ccccc1 [Benzyl butyl phthalate],LC50,"Rattus norvegicus [4]; acute, inhalation",> 6.7 mg/L
same,LD50,"Rattus norvegicus [4]; acute, injection, Intraperitoneal",2660 mg/kg
same,NOAEL,"Rattus norvegicus [4]; chronic, duration: 182 days, oral, diet, Fischer 344",470 mg/kg-day
same,LOAEL,"Rattus norvegicus [4]; chronic, duration: 365 days, oral, diet, F, Fischer 344",360 mg/kg-day
same,NOAEL,"Rattus norvegicus [4]; reproduction developmental, duration: 26 weeks, oral, diet, Fischer 344, generation: F0",498 mg/kg-day
same,NOAEL,"Rattus norvegicus [4]; reproduction developmental, duration: 26 weeks, oral, diet, Fischer 344, generation: F1",168 mg/kg-day
same,NOAEL,"Rattus norvegicus [4]; reproduction developmental, duration: 26 weeks, oral, diet, M, Fischer 344",168 mg/kg-day
same,NOAEL,"Rattus norvegicus [4]; reproduction developmental, duration: 8 days, oral, gavage, F, Wistar",500 mg/kg-day
same,NOAEL,"Rattus norvegicus [4]; reproduction developmental, duration: 8 days, oral, gavage, Wistar, generation: F1",500 mg/kg-day
same,NOAEL,Rattus norvegicus [4]; [13],420 mg/kg-day
same,NOAEL,"Rattus norvegicus [4]; reproduction developmental, duration: 10 days, oral, diet, Sprague-Dawley, generation: F1",1100 mg/kg-day
same,NOAEL,"Rattus norvegicus [4]; reproduction developmental, duration: 14 days, oral, diet, Fischer 344, generation: F0",750 mg/kg-day
same,NOAEL,"Rattus norvegicus [4]; reproduction developmental, duration: 20 days, oral, diet, Wistar, generation: F1",> 1020 mg/kg-day
same,NOAEL,"Rattus norvegicus [4]; reproduction developmental, duration: 21 days, oral, diet, Fischer 344, generation: F0",≤ 679 mg/kg-day
same,NOAEL,"Rattus norvegicus [4]; reproduction developmental, oral, diet, F, Wistar",< 631 mg/kg-day
same,NOAEL,"Rattus norvegicus [4]; reproduction developmental, oral, diet, Wistar, generation: F0",206 mg/kg-day
same,NOAEL,"Rattus norvegicus [4]; short-term, duration: 14 days, oral, gavage, Sprague-Dawley",160 mg/kg-day
same,NOAEL,"Rattus norvegicus [4]; short-term, duration: 14 days, oral, gavage, Wistar",480 mg/kg-day
same,LOAEL,"Rattus norvegicus [4]; short-term, duration: 21 days, oral, diet, Fischer 344",639 mg/kg-day
same,LOAEL,"Rattus norvegicus [4]; short-term, duration: 28 days, oral, diet, Fischer 344",540 mg/kg-day
same,NOAEL,"Rattus norvegicus [4]; short-term, duration: 28 days, oral, diet, Sprague-Dawley",1000 mg/kg-day
same,NOAEL,"Rattus norvegicus [4]; subchronic, duration: 42 days, oral, diet, Sprague-Dawley",500 mg/kg-day
same,NOAEL,"Rattus norvegicus [4]; subchronic, duration: 90 days, inhalation, Sprague-Dawley",0.218 mg/L
same,NOAEL,Rattus norvegicus [4]; [17],375 mg/kg-day
same,NOAEL,"Rattus norvegicus [4]; subchronic, duration: 90 days, oral, diet, Wistar",151 mg/kg-day
same,LD50,"Mus musculus [6]; injection, Intraperitoneal, Swiss-Webster",3160 mg/kg
same,LD50,Mus musculus [6]; oral,4170 mg/kg
same,NOAEL,"Mus musculus [6]; short-term, duration: 14 days, oral, diet, B6C3F1",> 5250 mg/kg-day
same,NOAEL,"Canidae; subchronic, duration: 90 days, Beagle",500 mg/kg-day
same,LD50,Oryctolagus sp.,> 10000 mg/kg
same,NOAEL,"Oryctolagus sp.; reproduction developmental, duration: 12 days, oral, F, New Zealand",10 mg/kg-day
same,NOEL,"Rattus norvegicus [7]; Albino, generation: F1, F1: AGD (units not specified)",100 mg/kg-day
same,LOEL,"Rattus norvegicus [7]; drinking water, Wistar Alpk, generation: F1, F1: AGD (mm)",0.18 mg/kg-day
same,NOEL,"Rattus norvegicus [7]; gavage, Crj:CD, generation: F1, F1: AGD (mm) + F1: AGD (mm/cube root BW)",400 mg/kg-day
same,LOEL,"Rattus norvegicus [7]; gavage, Crj:CD, generation: F2, F2: AGD (mm)",100 mg/kg-day
same,NOAEL,Rattus norvegicus [8],159 mg/kg-day
same,LOAEL,Rattus norvegicus [3]; [18],470 mg/kg-day
same,NOAEL,Rattus norvegicus [3]; [18],159 mg/kg-day
CCCCCCCCCCCCCCCCCC(=O)OC[C@@H](O)[C@H]1OC[C@H](O)[C@H]1O [Anhydrosorbitol stearate],NOEL,Rattus norvegicus [9],1000 mg/kg-day
same,LD50,"Rattus norvegicus [4]; acute, oral, gavage, Wistar",> 15900 mg/kg
same,NOAEL (% diet),"Rattus norvegicus [4]; reproduction developmental, duration: 2 years, oral, diet",5
same,NOAEL (% diet),"Mus musculus [6]; chronic, duration: 80 weeks, dermal, (TO)",0.5
same,NOAEL (% diet),"Canidae; chronic, duration: 20 months, dermal, Dog Other",5
same,LOAEL,"Canidae; chronic, duration: 21 months, diet, Mongrel or Irish terrier",485 mg/kg-day
"CC(O)CO (stereo not drawn) [1,2-Propylene glycol]",LOAEL,"Rattus norvegicus [1]; subchronic, duration: 13 weeks, inhalation, nose only, Sprague-Dawley, respiratory",159 mg/m3
same,LOAEL,"Rattus norvegicus [2]; subchronic, duration: 5 weeks, drinking water, M, Wistar, Hematologic",5200 mg/kg-day
Cc1cc(C(C)(C)C)c(O)c(C)c1Cn1c(=O)n(Cc2c(C)cc(C(C)(C)C)c(O)c2C)c(=O)n(Cc2c(C)cc(C(C)(C)C)c(O)c2C)c1=O [Cyanox CY 1790],LD50,"Rattus norvegicus [4]; acute, oral, Wistar",> 10000 mg/kg
same,LOAEL,Rattus norvegicus [4]; [19],10000 ppm
same,NOAEL,Rattus norvegicus [4]; [19],1000 ppm
same,NOAEL,"Rattus norvegicus [4]; reproduction developmental, oral, diet, Sprague-Dawley, generation: F0",1000 ppm
same,NOAEL,"Rattus norvegicus [4]; reproduction developmental, oral, diet, Sprague-Dawley, generation: F1",20000 ppm
same,NOAEL,Rattus norvegicus [4]; [17],400 mg/kg-day
same,NOAEL,"Canidae; subchronic, duration: 13 weeks, diet, Beagle",46 mg/kg-day
same,NOAEL,"Canidae; subchronic, duration: 30 days, diet, Beagle",400 mg/kg-day
same,NOAEL,Canidae; [14],30 mg/kg-day
same,LD50,Oryctolagus sp.,> 5000 mg/kg
CCCl [Chloroethane],NOAEL,Mus musculus [10],3970 mg/m3
same,NOAEL,"Rattus norvegicus [2]; short-term, duration: 14 days, drinking water, F, Fischer 344, Whole Body Effects",361 mg/kg-day
same,LOAEL,Mus musculus [11],13000 mg/m3
same,NOAEL,Mus musculus [11],4000 mg/m3
C=CC[N+](C)(C)CC=C.[Cl-] [Diallyldimethylammonium chloride],LD50,"Rattus norvegicus [4]; acute, oral, gavage, Sprague-Dawley",2520 mg/kg
same,LD50,"Rattus norvegicus [4]; acute, oral, gavage, Wistar",3930 mg/kg
same,NOAEL,"Rattus norvegicus [4]; developmental, duration: 9 days, oral, gavage, Sprague-Dawley",6 mg/kg-day
same,NOAEL,"Rattus norvegicus [4]; reproduction developmental, duration: 9 days, oral, gavage, F, Sprague-Dawley",6 mg/kg-day
same,NOAEL,"Rattus norvegicus [4]; reproduction developmental, duration: 133 days, oral, gavage, Sprague-Dawley, generation: F0",1.25 mg/kg-day
same,NOAEL,"Rattus norvegicus [4]; reproduction developmental, duration: 133 days, oral, gavage, Sprague-Dawley, generation: F1",1.25 mg/kg-day
same,NOAEL,"Rattus norvegicus [4]; reproduction developmental, duration: 133 days, oral, gavage, Sprague-Dawley, generation: F2",1.25 mg/kg-day
same,LOAEL,Rattus norvegicus [4]; [20],500 mg/kg-day
same,NOAEL,Rattus norvegicus [4]; [20],50 mg/kg-day
same,LOAEL,Canidae; [14],800 mg/kg-day
same,NOAEL,Canidae; [14],200 mg/kg-day
